Experimental data published in ChEMBL document CHEMBL4507297, “Data for DCP probe PF-04457845” (2021).

Legend:
[1] = molecular target: Alpha-2C adrenergic receptor (Homo sapiens) (UniProt P18825); conditions: Compound concentration 10.0 uM
[2] = molecular target: Proto-oncogene tyrosine-protein kinase ROS (Homo sapiens) (UniProt P08922); conditions: Compound concentration 1000.0 nM
[3] = molecular target: Serine/threonine-protein kinase MARK1 (Homo sapiens) (UniProt Q9P0L2); conditions: Compound concentration 1000.0 nM
[4] = molecular target: Serine/threonine-protein kinase tousled-like 1 (Homo sapiens) (UniProt Q9UKI8); conditions: Compound concentration 1000.0 nM
[5] = molecular target: Non-receptor tyrosine-protein kinase TNK1 (Homo sapiens) (UniProt Q13470); conditions: Compound concentration 1000.0 nM
[6] = molecular target: Glycogen synthase kinase-3 beta (Homo sapiens) (UniProt P49841); conditions: Compound concentration 1000.0 nM
[7] = molecular target: Fibroblast growth factor receptor 3 (Homo sapiens) (UniProt P22607); conditions: Compound concentration 1000.0 nM
[8] = molecular target: Sodium-dependent dopamine transporter (Homo sapiens) (UniProt Q01959); experiment: DA transporter (h) CEREP ligand profiling; conditions: Compound concentration 10.0 uM
[9] = molecular target: Mitogen-activated protein kinase kinase kinase 20 (Homo sapiens) (UniProt Q9NYL2); conditions: Compound concentration 1000.0 nM
[10] = molecular target: Receptor tyrosine-protein kinase erbB-4 (Homo sapiens) (UniProt Q15303); conditions: Compound concentration 1000.0 nM
[11] = molecular target: Inhibitor of nuclear factor kappa-B kinase subunit alpha (Homo sapiens) (UniProt O15111); conditions: Compound concentration 1000.0 nM
[12] = molecular target: Serine/threonine-protein kinase 3 (Homo sapiens) (UniProt Q13188); conditions: Compound concentration 1000.0 nM
[13] = molecular target: Death-associated protein kinase 2 (Homo sapiens) (UniProt Q9UIK4); conditions: Compound concentration 1000.0 nM
[14] = molecular target: Rho-associated protein kinase 1 (Homo sapiens) (UniProt Q13464); conditions: Compound concentration 1000.0 nM
[15] = molecular target: Tyrosine-protein kinase Lyn (Homo sapiens) (UniProt P07948); conditions: Compound concentration 1000.0 nM
[16] = molecular target: Receptor tyrosine-protein kinase erbB-3 (Homo sapiens) (UniProt P21860); conditions: Compound concentration 1000.0 nM
[17] = molecular target: Serine/threonine-protein kinase STK11 (Homo sapiens) (UniProt Q15831); conditions: Compound concentration 1000.0 nM
[18] = molecular target: T1, Muscarinic acetylcholine receptor M1 (Homo sapiens) (UniProt P11229); conditions: Compound concentration 10.0 uM
T1 sequence (whole entry): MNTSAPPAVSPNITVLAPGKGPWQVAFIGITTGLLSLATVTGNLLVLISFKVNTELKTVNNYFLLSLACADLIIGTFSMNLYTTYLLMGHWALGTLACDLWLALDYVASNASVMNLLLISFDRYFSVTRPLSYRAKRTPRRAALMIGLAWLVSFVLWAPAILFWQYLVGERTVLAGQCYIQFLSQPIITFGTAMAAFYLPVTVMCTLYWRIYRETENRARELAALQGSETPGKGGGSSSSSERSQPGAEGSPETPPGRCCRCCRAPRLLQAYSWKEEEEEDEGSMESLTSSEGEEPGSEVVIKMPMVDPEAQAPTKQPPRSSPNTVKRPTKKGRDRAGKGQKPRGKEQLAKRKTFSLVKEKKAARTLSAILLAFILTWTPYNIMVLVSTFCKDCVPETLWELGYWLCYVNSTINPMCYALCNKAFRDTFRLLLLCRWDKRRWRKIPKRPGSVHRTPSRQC

[19] = molecular target: Cyclin-dependent kinase-like 2 (Homo sapiens) (UniProt Q92772); conditions: Compound concentration 1000.0 nM
[20] = molecular target: Calcium/calmodulin-dependent protein kinase type II subunit gamma (Homo sapiens) (UniProt Q13555); conditions: Compound concentration 1000.0 nM
[21] = molecular target: Cyclin-dependent kinase 18 (Homo sapiens) (UniProt Q07002); conditions: Compound concentration 1000.0 nM
[22] = molecular target: Serine/threonine-protein kinase TNNI3K (Homo sapiens) (UniProt Q59H18); conditions: Compound concentration 1000.0 nM
[23] = molecular target: Tyrosine-protein kinase BTK (Homo sapiens) (UniProt Q06187); conditions: Compound concentration 1000.0 nM
[24] = molecular target: Fibroblast growth factor receptor 1 (Homo sapiens) (UniProt P11362); conditions: Compound concentration 1000.0 nM
[25] = molecular target: Alpha-2B adrenergic receptor (Homo sapiens) (UniProt P18089); conditions: Compound concentration 10.0 uM
[26] = molecular target: Mitogen-activated protein kinase kinase kinase 12 (Homo sapiens) (UniProt Q12852); conditions: Compound concentration 1000.0 nM
[27] = molecular target: Ribosomal protein S6 kinase alpha-1 (Homo sapiens) (UniProt Q15418); conditions: Compound concentration 1000.0 nM
[28] = system: Receptor-type tyrosine-protein kinase FLT3 (Homo sapiens), P36888 [UNDEFINED MUTATION]; conditions: Compound concentration 1000.0 nM
[29] = molecular target: Tyrosine-protein kinase JAK1 (Homo sapiens) (UniProt P23458); conditions: Compound concentration 1000.0 nM
[30] = molecular target: Beta-3 adrenergic receptor (Homo sapiens) (UniProt P13945); conditions: Compound concentration 10.0 uM
[31] = molecular target: Calcium/calmodulin-dependent protein kinase type II subunit delta (Homo sapiens) (UniProt Q13557); conditions: Compound concentration 1000.0 nM
[32] = molecular target: Macrophage colony-stimulating factor 1 receptor (Homo sapiens) (UniProt P07333); conditions: Compound concentration 1000.0 nM
[33] = molecular target: Glycogen synthase kinase-3 alpha (Homo sapiens) (UniProt P49840); conditions: Compound concentration 1000.0 nM
[34] = system: Tyrosine-protein kinase ABL1 (Homo sapiens), P00519 [M351T]; conditions: Compound concentration 1000.0 nM
[35] = molecular target: Mitogen-activated protein kinase kinase kinase kinase 4 (Homo sapiens) (UniProt O95819); conditions: Compound concentration 1000.0 nM
[36] = molecular target: Platelet-derived growth factor receptor alpha (Homo sapiens) (UniProt P16234); conditions: Compound concentration 1000.0 nM
[37] = molecular target: Activin receptor type-1B (Homo sapiens) (UniProt P36896); conditions: Compound concentration 1000.0 nM
[38] = molecular target: Mitogen-activated protein kinase kinase kinase 11 (Homo sapiens) (UniProt Q16584); conditions: Compound concentration 1000.0 nM
[39] = molecular target: Mitogen-activated protein kinase kinase kinase 7 (Homo sapiens) (UniProt O43318); conditions: Compound concentration 1000.0 nM
Mitogen-activated protein kinase kinase kinase 7 (Homo sapiens), sequence (O43318 whole entry): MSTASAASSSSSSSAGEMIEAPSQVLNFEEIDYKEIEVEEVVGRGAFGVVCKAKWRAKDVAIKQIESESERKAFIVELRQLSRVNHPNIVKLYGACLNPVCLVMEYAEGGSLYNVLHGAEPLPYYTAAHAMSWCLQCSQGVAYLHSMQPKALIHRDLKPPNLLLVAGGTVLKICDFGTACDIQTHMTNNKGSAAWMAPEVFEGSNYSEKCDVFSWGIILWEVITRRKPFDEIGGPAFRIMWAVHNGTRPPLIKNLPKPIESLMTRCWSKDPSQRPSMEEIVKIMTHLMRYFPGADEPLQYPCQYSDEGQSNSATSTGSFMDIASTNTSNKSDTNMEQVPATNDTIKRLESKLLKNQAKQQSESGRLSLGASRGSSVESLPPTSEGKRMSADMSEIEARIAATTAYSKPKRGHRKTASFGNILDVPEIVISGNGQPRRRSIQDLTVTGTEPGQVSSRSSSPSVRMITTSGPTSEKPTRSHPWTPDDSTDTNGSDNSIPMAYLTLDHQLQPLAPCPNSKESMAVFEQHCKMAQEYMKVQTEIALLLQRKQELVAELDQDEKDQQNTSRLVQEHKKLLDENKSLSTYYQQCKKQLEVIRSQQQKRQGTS

Glycogen synthase kinase-3 alpha (Homo sapiens), sequence (P49840 2-483 limits assumed): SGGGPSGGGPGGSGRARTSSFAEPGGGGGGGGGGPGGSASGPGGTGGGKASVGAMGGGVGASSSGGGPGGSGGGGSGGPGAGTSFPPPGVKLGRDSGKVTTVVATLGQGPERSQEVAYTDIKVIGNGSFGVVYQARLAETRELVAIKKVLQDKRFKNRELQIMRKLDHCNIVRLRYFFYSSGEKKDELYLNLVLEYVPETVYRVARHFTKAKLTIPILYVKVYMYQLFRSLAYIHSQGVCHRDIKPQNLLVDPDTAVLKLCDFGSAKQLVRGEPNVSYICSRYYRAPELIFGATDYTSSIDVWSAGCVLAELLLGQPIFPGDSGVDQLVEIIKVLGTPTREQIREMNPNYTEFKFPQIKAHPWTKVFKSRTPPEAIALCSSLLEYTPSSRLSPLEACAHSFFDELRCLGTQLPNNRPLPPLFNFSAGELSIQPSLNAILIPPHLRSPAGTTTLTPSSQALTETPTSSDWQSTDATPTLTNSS
Platelet-derived growth factor receptor alpha (Homo sapiens), sequence (P16234 whole entry): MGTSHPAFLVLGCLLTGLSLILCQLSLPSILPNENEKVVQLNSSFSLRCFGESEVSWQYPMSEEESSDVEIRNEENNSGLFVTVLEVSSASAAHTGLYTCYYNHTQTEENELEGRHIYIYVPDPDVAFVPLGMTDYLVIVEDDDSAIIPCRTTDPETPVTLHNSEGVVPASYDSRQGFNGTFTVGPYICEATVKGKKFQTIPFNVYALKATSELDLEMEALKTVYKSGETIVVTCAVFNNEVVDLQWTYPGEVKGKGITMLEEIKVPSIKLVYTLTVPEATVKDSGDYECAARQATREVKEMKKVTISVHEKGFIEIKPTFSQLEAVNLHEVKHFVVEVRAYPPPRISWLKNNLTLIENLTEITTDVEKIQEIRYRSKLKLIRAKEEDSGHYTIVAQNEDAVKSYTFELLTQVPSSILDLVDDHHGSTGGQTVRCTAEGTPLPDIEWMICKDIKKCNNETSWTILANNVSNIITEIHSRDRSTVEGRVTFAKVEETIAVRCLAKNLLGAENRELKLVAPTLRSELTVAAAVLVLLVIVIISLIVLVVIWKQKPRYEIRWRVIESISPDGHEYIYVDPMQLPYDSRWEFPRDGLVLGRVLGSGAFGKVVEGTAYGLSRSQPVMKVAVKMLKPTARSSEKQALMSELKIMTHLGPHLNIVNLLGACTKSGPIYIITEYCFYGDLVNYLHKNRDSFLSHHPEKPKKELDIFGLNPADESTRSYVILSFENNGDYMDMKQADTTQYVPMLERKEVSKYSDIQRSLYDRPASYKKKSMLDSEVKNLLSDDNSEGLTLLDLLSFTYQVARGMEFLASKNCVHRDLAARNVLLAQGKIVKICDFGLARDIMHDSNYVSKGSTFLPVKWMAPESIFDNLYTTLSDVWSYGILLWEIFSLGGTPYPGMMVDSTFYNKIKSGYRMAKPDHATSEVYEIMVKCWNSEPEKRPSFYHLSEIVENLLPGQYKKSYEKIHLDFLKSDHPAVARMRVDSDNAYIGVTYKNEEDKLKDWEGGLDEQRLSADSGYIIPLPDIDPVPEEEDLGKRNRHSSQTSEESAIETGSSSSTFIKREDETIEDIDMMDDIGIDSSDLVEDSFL
Mitogen-activated protein kinase kinase kinase 20 (Homo sapiens), sequence (Q9NYL2 2-800 limits assumed): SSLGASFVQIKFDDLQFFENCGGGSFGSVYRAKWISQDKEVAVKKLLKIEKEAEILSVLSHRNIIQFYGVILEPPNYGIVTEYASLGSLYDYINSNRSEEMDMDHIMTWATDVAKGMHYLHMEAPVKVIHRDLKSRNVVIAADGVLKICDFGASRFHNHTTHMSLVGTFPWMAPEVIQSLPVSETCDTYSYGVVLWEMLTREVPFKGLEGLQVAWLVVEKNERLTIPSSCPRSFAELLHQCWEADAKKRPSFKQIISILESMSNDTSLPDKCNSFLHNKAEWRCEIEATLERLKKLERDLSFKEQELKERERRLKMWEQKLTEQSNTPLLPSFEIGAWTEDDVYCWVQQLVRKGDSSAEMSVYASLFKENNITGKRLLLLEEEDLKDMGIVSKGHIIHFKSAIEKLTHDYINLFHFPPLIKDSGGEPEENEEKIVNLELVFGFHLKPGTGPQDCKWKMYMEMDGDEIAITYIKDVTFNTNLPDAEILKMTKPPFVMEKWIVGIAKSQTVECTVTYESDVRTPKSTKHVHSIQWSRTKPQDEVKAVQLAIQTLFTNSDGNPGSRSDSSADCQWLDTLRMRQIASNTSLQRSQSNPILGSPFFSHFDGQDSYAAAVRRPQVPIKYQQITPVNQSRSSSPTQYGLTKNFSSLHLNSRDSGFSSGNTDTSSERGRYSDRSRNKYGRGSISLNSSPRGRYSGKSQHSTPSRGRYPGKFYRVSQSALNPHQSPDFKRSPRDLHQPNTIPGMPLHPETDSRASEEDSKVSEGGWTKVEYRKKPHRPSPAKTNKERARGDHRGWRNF
Serine/threonine-protein kinase TNNI3K (Homo sapiens), sequence (Q59H18 whole entry): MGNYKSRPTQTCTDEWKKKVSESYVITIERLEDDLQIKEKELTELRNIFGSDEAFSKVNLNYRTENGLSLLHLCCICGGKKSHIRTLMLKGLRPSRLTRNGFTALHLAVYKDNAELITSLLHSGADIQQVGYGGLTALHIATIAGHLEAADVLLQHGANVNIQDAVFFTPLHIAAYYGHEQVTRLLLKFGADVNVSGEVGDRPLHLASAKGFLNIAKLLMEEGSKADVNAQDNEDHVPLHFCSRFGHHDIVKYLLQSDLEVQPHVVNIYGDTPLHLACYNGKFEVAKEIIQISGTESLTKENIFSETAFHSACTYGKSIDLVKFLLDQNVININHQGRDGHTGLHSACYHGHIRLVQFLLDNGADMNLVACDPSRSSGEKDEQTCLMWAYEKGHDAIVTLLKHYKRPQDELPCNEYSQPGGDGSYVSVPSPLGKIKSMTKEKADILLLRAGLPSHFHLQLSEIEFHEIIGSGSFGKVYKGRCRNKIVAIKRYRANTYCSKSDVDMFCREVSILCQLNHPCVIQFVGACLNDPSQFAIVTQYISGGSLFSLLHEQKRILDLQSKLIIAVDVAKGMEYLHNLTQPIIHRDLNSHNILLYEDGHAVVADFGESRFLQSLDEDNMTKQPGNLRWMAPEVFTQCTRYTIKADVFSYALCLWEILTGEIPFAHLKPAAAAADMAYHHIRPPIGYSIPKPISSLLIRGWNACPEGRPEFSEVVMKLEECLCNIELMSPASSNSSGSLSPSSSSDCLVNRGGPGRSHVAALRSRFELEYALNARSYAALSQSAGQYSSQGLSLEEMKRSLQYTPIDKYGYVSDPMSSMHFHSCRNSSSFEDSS
Cyclin-dependent kinase 18 (Homo sapiens), sequence (Q07002 whole entry): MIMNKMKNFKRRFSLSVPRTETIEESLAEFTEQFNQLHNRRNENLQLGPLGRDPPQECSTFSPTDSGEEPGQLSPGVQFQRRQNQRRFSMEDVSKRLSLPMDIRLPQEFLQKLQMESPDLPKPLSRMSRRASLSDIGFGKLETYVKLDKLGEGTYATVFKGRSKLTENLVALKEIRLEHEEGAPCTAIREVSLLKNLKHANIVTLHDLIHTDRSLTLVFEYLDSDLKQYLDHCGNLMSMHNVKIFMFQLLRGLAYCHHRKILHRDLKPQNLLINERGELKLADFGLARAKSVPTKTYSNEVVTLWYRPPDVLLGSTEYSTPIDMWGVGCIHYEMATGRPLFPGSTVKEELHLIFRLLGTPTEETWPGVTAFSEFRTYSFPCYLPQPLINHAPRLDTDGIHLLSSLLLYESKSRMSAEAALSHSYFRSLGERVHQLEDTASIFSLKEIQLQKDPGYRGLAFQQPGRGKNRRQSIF
Tyrosine-protein kinase BTK (Homo sapiens), sequence (Q06187 whole entry): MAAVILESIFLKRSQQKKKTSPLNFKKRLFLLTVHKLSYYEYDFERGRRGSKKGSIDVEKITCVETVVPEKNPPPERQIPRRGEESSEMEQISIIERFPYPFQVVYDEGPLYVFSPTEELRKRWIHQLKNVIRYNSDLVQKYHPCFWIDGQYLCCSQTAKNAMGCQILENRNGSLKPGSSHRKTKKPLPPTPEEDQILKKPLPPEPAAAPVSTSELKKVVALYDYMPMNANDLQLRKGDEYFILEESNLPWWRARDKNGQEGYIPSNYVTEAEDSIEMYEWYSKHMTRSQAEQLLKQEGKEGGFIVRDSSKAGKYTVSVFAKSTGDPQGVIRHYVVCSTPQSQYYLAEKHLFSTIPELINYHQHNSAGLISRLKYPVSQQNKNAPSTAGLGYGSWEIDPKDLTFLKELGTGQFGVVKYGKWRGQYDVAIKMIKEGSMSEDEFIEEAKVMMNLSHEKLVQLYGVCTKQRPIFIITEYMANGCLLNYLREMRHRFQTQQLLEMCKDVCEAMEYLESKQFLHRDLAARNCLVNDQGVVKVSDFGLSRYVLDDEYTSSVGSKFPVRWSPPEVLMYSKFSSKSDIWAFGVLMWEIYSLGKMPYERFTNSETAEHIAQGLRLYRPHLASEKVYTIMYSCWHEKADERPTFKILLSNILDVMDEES

| SMILES | inhibition [1] | residual activity [2] | residual activity [3] | residual activity [4] | residual activity [5] | residual activity [6] | residual activity [7] | residual activity [9] | residual activity [10] | residual activity [11] | residual activity [12] | residual activity [13] | residual activity [14] | residual activity [15] | residual activity [16] | residual activity [17] | inhibition [18] | residual activity [19] | residual activity [20] | residual activity [21] | further results |
| --- | --- | --- | --- | --- | --- | --- | --- | --- | --- | --- | --- | --- | --- | --- | --- | --- | --- | --- | --- | --- | --- |
| O=C(Nc1cccnn1)N1CCC(=Cc2cccc(Oc3ccc(C(F)(F)F)cn3)c2)CC1 | 79.3% | 80% | 84% | 100% | 98% | 100% | 83% | 95% | 100% | 93% | 100% | 69% | 100% | 100% | 84% | 100% | 29.5% | 92% | 74% | 76% | inhibition [8]: -1%; residual activity [22]: 100%; residual activity [23]: 100%; residual activity [24]: 100%; inhibition [25]: 40%; residual activity [26]: 100%; residual activity [27]: 100%; residual activity [28]: 94%; residual activity [29]: 100%; inhibition [30]: 0.69%; residual activity [31]: 82%; residual activity [32]: 95%; residual activity [33]: 100%; residual activity [34]: 99%; residual activity [35]: 100%; residual activity [36]: 100%; residual activity [37]: 88%; residual activity [38]: 74%; residual activity [39]: 100% |
| O=C(Nc1cccnn1)N1CC(C/C=C/c2cncc(Oc3ccc(C(F)(F)F)cn3)n2)C1 | 0.34% | 100% | 100% | 98% | 100% | 77% | 97% | 100% | 100% | 69% | 80% | 100% | 82% | 97% | 99% | 64% | -6.78% | 100% | 100% | 100% | residual activity [22]: 100%; residual activity [23]: 59%; residual activity [24]: 100%; residual activity [26]: 83%; residual activity [27]: 92%; residual activity [28]: 68%; residual activity [29]: 95%; residual activity [31]: 100%; residual activity [32]: 100%; residual activity [33]: 92%; residual activity [34]: 67%; residual activity [35]: 100%; residual activity [36]: 80%; residual activity [37]: 79%; residual activity [38]: 100%; residual activity [39]: 93% |
